For assay [1], the system named is M. avium intracellularie. The experiment in a line: MIC, M. avium intracellularie. The settings on record: Table 3. Format: cell-based, Mycobacterium avium intracellulare.
Assay [2] relates to Mycobacterium tuberculosis. Particulars: Table 3.
Assay [3] deals with various microorganisms. The experiment in a line: Antimicrobial activity tests, various microorganisms. The settings on record: for growth in wells (activity): Example 1 microbes.
The subject of assay [4] is Mycobacterium fortutium. The experiment in a line: MIC, Mycobacterium fortutium. The settings on record: Table 3. Format: cell-based.
In assay [5] the test system is VRE (Vancomycin resistant Enterococci). The experiment in a line: NCCLS MIC/MBC microdilution, VRE. The settings on record: Table 3; 24 h and 48 h same results. (Dilution methods test growth across graded concentrations, often in twofold steps.)
Description: (§1) Standard NCCLS (e.g., National Committee for Clinical Laboratory Standards) methods for determining MIC (e.g., minimum inhibitory concentration) and MBC (e.g., minimum bactericidal concentration) were used. 96 well micro-well plates were placed in a humid chamber and frozen at −70° C. [BBL Mueller Hinton Broth]. Drugs (e.g., antimicrobial compounds of the present invention) were added to a series of wells through 2 fold serial dilutions. 100 μl of a 2×10^−3 M solution of the respective Tx compounds was added to the first well in a series. 100 μl of the inoculum (e.g., microorganism) was added to the well. […] For example, the concentration in well 8 would be less than the concentration of the same drug in well 7. Inoculum (e.g., microorganism) that was added to the wells was prepared from 24 hour growth of an isolate on 5% sheep blood/Columbia agar plates. 5 to 10 representative colonies were then picked from the plates and added to saline and adjusted to 0.5 McFarland turbidity. Next the sample was diluted 1:100 in saline, such that 100 μl of the diluted sample contained approximately 1×10^5 microbes. 100 μl of the diluted sample was added to each well in a series of drug concentrations. Once the cells were added to the wells, the well plates were incubated at 35° C. without CO2 for 48 hrs and at this time the minimum bactericidal concentration was determined.
(§2) The MIC of Tx-118, Tx-147, and Tx-197 for certain Staphylococcus aureus (MRSA), Pseudomonas aeruginosa, Stenotrophomonas maltophilia, and VRE Enterococcus faecalis was determined using standard NCCLS methods. The first well in each series of decreasing drug concentrations contained 1×10^−4 M of a drug. The drug was diluted by serial two fold dilutions through all 12 wells in a series. There was a final DMSO concentration of 2% in the first well and 1% in the second well, etc. Tests with Tx-118 and Tx-197 were performed in triplicate, and tests with Tx-147 were performed in duplicate.
Assay [6] relates to MRSA (oxacillin/methicillin resistant S. aureus). The experiment in a line: NCCLS MIC/MBC microdilution, MRSA. The settings on record: Table 3; 24 h and 48 h same results.
Description: as §1, §2
The subject of assay [7] is P. aeruginosa. The experiment in a line: NCCLS MIC/MBC microdilution, P. aeruginosa. Particulars: Table 3; P. aeroginosa is L13 from Table 2.
Description: as §1, §2
The test system of assay [8] is Stenotrophomonas maltophilia. The experiment in a line: NCCLS MIC/MBC microdilution, S. maltophilia. Particulars: Table 3; 24 h and 48 h same results.
Description: as §1, §2
Assay [9] concerns chloroquin (CQ) resistant strain of Plasmodium falciparum (Pf). The experiment in a line: In vitro efficacy against chloroquin resistant Plasmodium falciparum. Format: cell-based. The settings on record: for IC50: CQ resistant P. falciparum, in vitro, triplicate. The method, then: Tx-5 and Tx-84 were tested for in vitro efficacy against a chloroquin (CQ) resistant strain of Plasmodium falciparum (Pf). The tests were performed in triplicate at a wide variety of concentrations and evaluated for effect compared with CQ.

The values below come from US20050107430A1, “Antimicrobial and antiviral compounds” (priority 2003, published 2005).

Each structure is given as a SMILES string. Values after ≈ are worked out from the molar mass of the structure shown. “Also recorded” adds a separate entry of the source.

Turning to `CN1CCN(C(=O)CCC(=O)Nc2ccc3c(ccc4c5ccccc5ccc34)c2)CC1` [Tx-2, N-(2′-chrysenyl)-4-(4′N-methyl-piperazinyl)-butane-1,4-dicarboxiamide], the “MIC, M. avium intracellularie” value in assay [1] came to 15.6 µg/mL (≈ 36.7 µM). In addition, the “MIC, Mycobacterium tuberculosis” value in [2] came out at 1 µg/mL (≈ 2.35 µM).

Regarding `O=C(CCC(=O)N1CCCCC1)Nc1cc2c3ccccc3ccc2c2ccccc12` [Tx-3, N-(6′-chrysenyl)-4-(1′-piperidinyl)-butane-1-4-dicarboxiamide], the “MIC, M. avium intracellularie” value in [1] was “.98 µg/mL”. In [2], the “MIC, Mycobacterium tuberculosis” value was “.125 µg/mL”.

`CN1CCN(C(=O)CCC(=O)Nc2ccc3c(c2)c(Br)cc2c4ccccc4ccc32)CC1` [Tx-10, N-(12′-bromo, 2′-chrysenyl)-4-(4′N methyl-piperazinyl)-butane-1,4-dicarboxiamide]: the “growth in wells (activity)” value in [3] is “+3 growth (e.g., no activity)”.

Take `CC(=O)c1cc2c3ccccc3ccc2c2ccc(NC(=O)CCC(=O)N3CCN(C)CC3)cc12` [Tx-118, N-(12′-acetyl, 2′-chrysenyl)-4-(4′N methyl-piperazinyl)-butane-1,4-dicarboxiamide]: in assay [4], the “MIC, Mycobacterium fortutium” value is reported as “No activity”. The “MIC, VRE enterococcus (E. faecalis)” value in [5] is reported as “No activity”. Moreover, in [6], the “MIC, MRSA (methicillin resistant)” value is on record as “No activity”. The “MIC, P. aeruginosa” value in assay [7] was “No activity”. Moreover, the “MIC, Stenotrophomonas maltophilia” value in assay [8] is on record as “No activity”.

Regarding `O=C(CCC(=O)N1CCCCC1)Nc1ccc2c(c1)c(Br)cc1c3ccccc3ccc21` [Tx-12, N-(12′-bromo, 2′-chrysenyl)-4-(1′-piperidinyl)-butane-1,4-dicarboxiamide], in [3], the “growth in wells (activity)” value is reported as “+3 growth (e.g., no activity)”.

As a reminder, the IC50 is the concentration at which inhibition is half-maximal. With `c1ccc2c(c1)c(NCCCCN1CCCCC1)cc1c3ccccc3c(NCCCCN3CCCCC3)cc21` [Tx-84], the IC50 in assay [9] was determined as 0.091 µM. In [9] (in words), the “inhibitory effect against Pf” value is reported as “significant inhibitory effect; also recorded: greater than that of CQ”. Moreover, the “MIC, VRE enterococcus (E. faecalis)” value in assay [5] lay within 4 to 33 µg/mL. Besides, the “MIC, MRSA (methicillin resistant)” value in assay [6] came out at 16 µg/mL (≈ 29.8 µM). In addition, the “MIC, P. aeruginosa” value in assay [7] is recorded as “No activity”.

On to `CN1CCN(C(=O)CCC(=O)Nc2cc3c4ccccc4ccc3c3ccccc23)CC1` [Tx-1, N-(6′-chrysenyl)-4-(4′N methyl-piperazinyl)-butane-1,4-dicarboxiamide], for which the “MIC, M. avium intracellularie” value in [1] turned out to be 46 µg/mL (≈ 108 µM). Further, in assay [2], the “MIC, Mycobacterium tuberculosis” value was found to be 2.9 µg/mL (≈ 6.81 µM).

On to `O=C(CCC(=O)N1CCCCC1)Nc1ccc2c(ccc3c4ccccc4ccc23)c1` [Tx-4, N-(2′-chrysenyl)-4-(1′-piperidinyl)-butane-1,4-dicarboxiamide], for which the “MIC, M. avium intracellularie” value in assay [1] is “.82 µg/mL”. In addition, the “MIC, Mycobacterium tuberculosis” value in assay [2] was “.1 µg/mL”.

On to `CN1CCN(C(=O)CCC(=O)Nc2cc3c4ccccc4c(Br)cc3c3ccccc23)CC1` [Tx-9, N-(12′-bromo, 6′-chrysenyl)-4-(4′N methyl-piperazinyl)-butane-1,4-dicarboxiamide], for which the “growth in wells (activity)” value in [3] is listed as “+3 growth (e.g., no activity)”.

Turning to `CCN(CC)CCCC(C)Nc1ccnc2cc(Cl)ccc12` (centres unmarked) [CQ, chloroquin, reference compound], the IC50 in assay [9] worked out at 0.606 µM.

With `Cl.c1ccc2c(c1)c(NCCCCN1CCCCC1)cc1c3ccccc3c(NCCCCN3CCCCC3)cc21` [Tx-225], in assay [3] (in words), the antimicrobial activity entry is reported as “activity similar to Tx-84”.

In the case of `O=C1[C@@H](O)[C@H](c2ccccc2)N1c1cc2c3ccccc3ccc2c2ccccc12` (relative stereo) [Tx-197, Trans-1-N-(6′-chrysenyl)-3-hydroxy-4-phenyl-2-azetidinone], in [4], the “MIC, Mycobacterium fortutium” value is “No activity”. The “MIC, VRE enterococcus (E. faecalis)” value in [5] was “No activity”. Further, the “MIC, MRSA (methicillin resistant)” value in assay [6] was “No activity”. Further, in [7], the “MIC, P. aeruginosa” value is reported as “No activity”. Also, the “MIC, Stenotrophomonas maltophilia” value in assay [8] is reported as “No activity”.

As for `O=C(CCC(=O)N1CCCCC1)Nc1cc2c3ccccc3c(Br)cc2c2ccccc12` [Tx-11, N-(12′-bromo, 6-chrysenyl)-4-(1′-piperidinyl)-butane-1,4-dicarboxiamide], in [3], the “growth in wells (activity)” value is reported as “+3 growth (e.g., no activity)”.
